Laboratory results taken from US20040167203A1, “Absorption enhancing agents” (priority 2003, published 2004).
Read-outs that look alike come from different tables or passages of the source. Blank lines part the entries; values can stand above or below the molecule they belong to.

How the values were obtained:
Caco-2 cell line [1] = assay type: in vitro ADME, human
Source text: (§1) The Caco-2 cell line is a well-recognized in vitro screening model, which both structurally and functionally represents the small intestinal epithelium. Caco-2 cells are derived from human colon carcinoma cells and differentiate in culture to form intestinal epithelia similar to that found in the small intestine. More specifically, Caco-2 cells form a brush border with normal enzymes, form tight junctions between cells, and acquire the barrier properties of an enterocyte sheet. […] The absorption enhancers were tested using two model drugs, sampatrilat and hydrochlorothiazide. In addition, a lactate dehydrogenase (LDH) assay was conducted after the permeation studies to evaluate the cytotoxicity of the absorption enhancers as well as to discover any violation of the integrity of the Caco-2 cells. LDH is a cytosolic enzyme that is not normally secreted outside the cell. However, it leaks into the culture medium upon damage to the cell membranes. In vitro release of LDH from cells provides an accurate measure of cell membrane integrity and cell viability. […] Wu, S.-J., et al, Pharmaceutical Res., 16(8): 1266-1272 (1999); Allen, M. J. et al., Promega Notes Magazine, Number 45, p. 7 (1994); or Ehrlich, M. et al, Current Protocols in Toxicology, John Wiley & Sons, New York (2000). LDH leakage into the apical compartment of the Caco-2 cell system was used to measure the effect, if any, of a given absorption enhancer on the viability of the Caco-2 cells.
Permeability coefficients are determined as previously reported by Yazdania et.el (Yazdanian M, Glynn, S I, Wright J L, et al. 1998. Correlating partitioning and Caco-2 permeability of structurally diverse small molecular weight compounds. Pharm Res 15:1490-1494). Briefly, drug solutions were prepared in HBSS at a known final concentration. For AP to BL experiments, the solution was placed on the apical side of the cells and samples were taken from basolateral side. In contrast, for BL to AP experiments, the solution was placed on the basolateral side of the cells and samples were taken from apical side. The samples are analyzed by an HPLC. Transport rates (J) are determined by plotting cumulative amounts of drug permeated as a function of time. Apparent permeability coefficients Pcaco-2, are determined according to the equation Pcaco-2=J/ACi where Ci is the initial concentration of the solution in donor chamber and A is the surface area of the filter.

Caco-2 cells = assay: Lactate dehydrogenase (LDH) leakage assay after permeation studies; assay type: cell-based, human; settings: relative to cells treated with Hank's balanced salt solution alone
Source text: as §1

Caco-2 cell line [2] = assay: in vitro; assay type: in vitro ADME; settings: human, Caco-2, 1 % w/v
Source text: as §1
(§2) Permeability coefficients are determined as previously reported by Yazdania et.el (Yazdanian M, Glynn, S I, Wright J L, et al. 1998. Correlating partitioning and Caco-2 permeability of structurally diverse small molecular weight compounds. Pharm Res 15:1490-1494). […] The samples are analyzed by an HPLC. Transport rates (J) are determined by plotting cumulative amounts of drug permeated as a function of time. Apparent permeability coefficients Pcaco-2, are determined according to the equation Pcaco-2=J/ACi where Ci is the initial concentration of the solution in donor chamber and A is the surface area of the filter. […]

in vitro = in vitro ADME; settings: human, Caco-2
Source text: as §1, §2

Caco-2 cell line [3] = assay type: in vitro ADME; settings: human, Caco-2, 1.8 mg/mL
Procedure: The original cell line integrity and the effect of excipients on the integrity of cell line were also tested by measuring the flux of ^14C-mannitol.

Molecule: CC1(C)[C@@H](O)CC[C@]2(C)[C@H]3C(=O)C=C4[C@@H]5C[C@@](C)(C(=O)O)CC[C@]5(C)CC[C@@]4(C)[C@]3(C)CC[C@@H]12 [Glycyrrehetinic acid, 18 β-glycyrrhetinic acid]
Potency in permeability enhancement (in words) (Caco-2 cell line [1]; human): low or no potency

Molecule: CS(=O)(=O)N[C@@H](CCCCN)C(=O)NC[C@H](CC1(C(=O)N[C@@H](Cc2ccc(O)cc2)C(=O)O)CCCC1)C(=O)O [Sampatrilat]
Papp A→B at 1.8 mg/mL (in vitro): 0.16 ×10⁻⁶ cm/s | Permeability Coefficient, Mannitol (Caco-2 cell line [3]): 4.9 10E−7 cm/s

Molecule: O=C(O)C1=C[C@@H](O)[C@@H](O)[C@H](O)C1 [Shikimic acid, shikimic acid]
Cytotoxicity (LDH assay) (Caco-2 cells): not cytotoxic

Molecule: Vitamin E TPGS [Vitamin E TGPS]
Potency in permeability enhancement (in words) (Caco-2 cell line [1]): low or no potency

Further lines, with some results ahead:

Potency in permeability enhancement (in words) (Caco-2 cell line [1]): low or no potency
Molecule: O=C1CCCCCCCCCCCCCCO1 [Cyclopentadecanolide, cyclopentadecanolide]

Effect on sampatrilat permeation across the Caco-2 cell line (in words) (Caco-2 cell line [2]): significantly increase
Molecule: CN(C)CC(=O)O [N,N-dimethylglycine]
Cytotoxicity (LDH assay) (Caco-2 cells): not cytotoxic

Potency in permeability enhancement (in words) (Caco-2 cell line [1]; human): low or no potency
Molecule: O=C(/C=C/C=C/c1ccc2c(c1)OCO2)N1CCCCC1 [Piperine, piperine]

Effect on sampatrilat permeation across the Caco-2 cell line (in words) (Caco-2 cell line [2]): significantly increase
Molecule: O=C(O)CCCCCCCCC(=O)O [Sebacic acid, sebacic acid]
Cytotoxicity (LDH assay) (Caco-2 cells): not cytotoxic
